Test results: patent US11199542B2, “Method for labeling specifically living bacteria comprising the use of modified non endogenous monosaccharide compounds” (priority 2015, dated 2021)

Columns and labels:
Escherichia coli K12 = assay: Metabolic labeling of living bacteria, click chemistry and fluorescence microscopy; assay type: cell-based; set-up: key: +: strains showing highly distinctive fluorescence on their membrane, indicative of an effective metabolic incorporation of the chemical reporter; −: the absence of labeling; settings: compound 10 mM, 24 hours, fluorochrome-alkyne click 30 minutes
Vibrio cholerae = assay: as above; assay type: cell-based; set-up: key: +: strains showing highly distinctive fluorescence on their membrane, indicative of an effective metabolic incorporation of the chemical reporter; −: the absence of labeling; settings: compound 10 mM, 24 hours, fluorochrome-alkyne click 30 minutes
[1] = system: Salmonella Typhimurium 12023; assay: as above; assay type: cell-based; set-up: key: +: strains showing highly distinctive fluorescence on their membrane, indicative of an effective metabolic incorporation of the chemical reporter; −: the absence of labeling; settings: compound 10 mM, 24 hours, fluorochrome-alkyne click 30 minutes
Staphylococcus epidermis = assay: as above; assay type: cell-based; set-up: key to labeling (fluorescence on membrane, metabolic incorporation of the chemical reporter): +: strains showing highly distinctive fluorescence on their membrane, indicative of an effective metabolic incorporation of the chemical reporter; −: the absence of labeling
[2] = system: Pseudomonas fluorescens Migula; assay: as above; assay type: cell-based; set-up: key: +: strains showing highly distinctive fluorescence on their membrane, indicative of an effective metabolic incorporation of the chemical reporter; −: the absence of labeling; settings: compound 10 mM, 24 hours, fluorochrome-alkyne click 30 minutes
[3] = system: Listeria monocytogenes ½a; assay: as above; assay type: cell-based; set-up: key: +: strains showing highly distinctive fluorescence on their membrane, indicative of an effective metabolic incorporation of the chemical reporter; −: the absence of labeling; settings: compound 10 mM, 24 hours, fluorochrome-alkyne click 30 minutes
Neisseria meningitidis = assay: as above; assay type: cell-based; set-up: key: +: strains showing highly distinctive fluorescence on their membrane, indicative of an effective metabolic incorporation of the chemical reporter; −: the absence of labeling; settings: compound 10 mM, 24 hours, fluorochrome-alkyne click 30 minutes
[4] = system: Legionella pneumophila sg6; assay type: cell-based; set-up: key: +: strains showing highly distinctive fluorescence on their membrane, indicative of an effective metabolic incorporation of the chemical reporter; −: the absence of labeling; settings: compound 10 mM, 24 hours, fluorochrome-alkyne click 30 minutes
Klebsiella pneumoniae [5] = assay: Metabolic labeling of living bacteria, click chemistry and fluorescence microscopy; assay type: cell-based; set-up: key: +: strains showing highly distinctive fluorescence on their membrane, indicative of an effective metabolic incorporation of the chemical reporter; −: the absence of labeling; settings: first of two entries (Table 1 order: CIP 101114), compound 10 mM, 24 hours, fluorochrome-alkyne click 30 minutes
Serratia marcescens [6] = assay: as above; assay type: cell-based; set-up: key: +: strains showing highly distinctive fluorescence on their membrane, indicative of an effective metabolic incorporation of the chemical reporter; −: the absence of labeling; settings: second of two entries (Table 1 order: Clinical strain), compound 10 mM, 24 hours, fluorochrome-alkyne click 30 minutes
Providenda stuartii = assay: as above; assay type: cell-based, Providencia stuartii; set-up: key: +: strains showing highly distinctive fluorescence on their membrane, indicative of an effective metabolic incorporation of the chemical reporter; −: the absence of labeling; settings: compound 10 mM, 24 hours, fluorochrome-alkyne click 30 minutes
Klebsiella pneumoniae [7] = assay: as above; assay type: cell-based; set-up: key: +: strains showing highly distinctive fluorescence on their membrane, indicative of an effective metabolic incorporation of the chemical reporter; −: the absence of labeling; settings: second of two entries (Table 1 order: Clinical strain), compound 10 mM, 24 hours, fluorochrome-alkyne click 30 minutes
Listeria monocytogenes ½ = assay: as above; assay type: cell-based; set-up: key to labeling (fluorescence on membrane, metabolic incorporation of the chemical reporter): +: strains showing highly distinctive fluorescence on their membrane, indicative of an effective metabolic incorporation of the chemical reporter; −: the absence of labeling
[8] = system: Staphylococcus aureus aureus; assay: as above; assay type: cell-based; set-up: key to labeling (fluorescence on membrane, metabolic incorporation of the chemical reporter): +: strains showing highly distinctive fluorescence on their membrane, indicative of an effective metabolic incorporation of the chemical reporter; −: the absence of labeling
Enterococcus faecalis = assay: as above; assay type: cell-based; set-up: key to labeling (fluorescence on membrane, metabolic incorporation of the chemical reporter): +: strains showing highly distinctive fluorescence on their membrane, indicative of an effective metabolic incorporation of the chemical reporter; −: the absence of labeling
Neisseria gonorrhoeae = assay: as above; assay type: cell-based; set-up: key to labeling (fluorescence on membrane, metabolic incorporation of the chemical reporter): +: strains showing highly distinctive fluorescence on their membrane, indicative of an effective metabolic incorporation of the chemical reporter; −: the absence of labeling
[9] = system: Stenotrophomonas maltophilia; assay: as above; assay type: cell-based; set-up: key: +: strains showing highly distinctive fluorescence on their membrane, indicative of an effective metabolic incorporation of the chemical reporter; −: the absence of labeling; settings: compound 10 mM, 24 hours, fluorochrome-alkyne click 30 minutes
Escherichia coli O86 = assay: as above; assay type: cell-based; set-up: key: +: strains showing highly distinctive fluorescence on their membrane, indicative of an effective metabolic incorporation of the chemical reporter; −: the absence of labeling; settings: compound 10 mM, 24 hours, fluorochrome-alkyne click 30 minutes
Micrococcus luteus = assay: as above; assay type: cell-based; set-up: key to labeling (fluorescence on membrane, metabolic incorporation of the chemical reporter): +: strains showing highly distinctive fluorescence on their membrane, indicative of an effective metabolic incorporation of the chemical reporter; −: the absence of labeling
Staphylococcus aureus = assay: as above; assay type: cell-based; set-up: key to labeling (fluorescence on membrane, metabolic incorporation of the chemical reporter): +: strains showing highly distinctive fluorescence on their membrane, indicative of an effective metabolic incorporation of the chemical reporter; −: the absence of labeling
Serratia marcescens [10] = assay: as above; assay type: cell-based; set-up: key: +: strains showing highly distinctive fluorescence on their membrane, indicative of an effective metabolic incorporation of the chemical reporter; −: the absence of labeling; settings: first of two entries (Table 1 order: CIP102446), compound 10 mM, 24 hours, fluorochrome-alkyne click 30 minutes
Proteus mirabilis = assay: as above; assay type: cell-based; set-up: key: +: strains showing highly distinctive fluorescence on their membrane, indicative of an effective metabolic incorporation of the chemical reporter; −: the absence of labeling; settings: compound 10 mM, 24 hours, fluorochrome-alkyne click 30 minutes
[11] = compound 10 mM, 24 hours, fluorochrome-alkyne click 30 minutes

[N-]=[N+]=NC[C@@H](O)[C@@H](O)[C@H](O)[C@H](O)CC(=O)C(=O)O [Kdo-N3, 8-azido-3,8-dideoxy-D-manno-octulosonate]
+: labeling (fluorescence on membrane, metabolic incorporation of the chemical reporter) (Escherichia coli K12) | labeling (fluorescence on membrane, metabolic incorporation of the chemical reporter) (Vibrio cholerae) | labeling (fluorescence on membrane, metabolic incorporation of the chemical reporter) [1] | labeling (fluorescence on membrane, metabolic incorporation of the chemical reporter) [2] | labeling (fluorescence on membrane, metabolic incorporation of the chemical reporter) (Neisseria meningitidis) | labeling (fluorescence on membrane, metabolic incorporation of the chemical reporter) [4] | labeling (fluorescence on membrane, metabolic incorporation of the chemical reporter) (Klebsiella pneumoniae [5]) | labeling (fluorescence on membrane, metabolic incorporation of the chemical reporter) (Serratia marcescens [6]) | labeling (fluorescence on membrane, metabolic incorporation of the chemical reporter) (Providenda stuartii) | labeling (fluorescence on membrane, metabolic incorporation of the chemical reporter) (Klebsiella pneumoniae [7]) | labeling (fluorescence on membrane, metabolic incorporation of the chemical reporter) [9] | labeling (fluorescence on membrane, metabolic incorporation of the chemical reporter) (Escherichia coli O86) | labeling (fluorescence on membrane, metabolic incorporation of the chemical reporter) (Serratia marcescens [10]) | labeling (fluorescence on membrane, metabolic incorporation of the chemical reporter) (Proteus mirabilis)
did not assimilate: assimilation by the bacteria (in words) (Staphylococcus epidermis) | assimilation by the bacteria (in words) (Listeria monocytogenes ½; Listeria monocytogenes (strain not given)) | assimilation by the bacteria (in words) [8] | assimilation by the bacteria (in words) (Enterococcus faecalis) | assimilation by the bacteria (in words) (Neisseria gonorrhoeae) | assimilation by the bacteria (in words) (Micrococcus luteus) | assimilation by the bacteria (in words) (Staphylococcus aureus)
−: labeling (fluorescence on membrane, metabolic incorporation of the chemical reporter) (Staphylococcus epidermis; [11]) | labeling (fluorescence on membrane, metabolic incorporation of the chemical reporter) [3] | labeling (fluorescence on membrane, metabolic incorporation of the chemical reporter) (Listeria monocytogenes ½; Listeria monocytogenes ½, compound 10 mM, 24 hours, fluorochrome-alkyne click 30 minutes) | labeling (fluorescence on membrane, metabolic incorporation of the chemical reporter) [8, 11] | labeling (fluorescence on membrane, metabolic incorporation of the chemical reporter) (Enterococcus faecalis; [11]) | labeling (fluorescence on membrane, metabolic incorporation of the chemical reporter) (Neisseria gonorrhoeae; [11]) | labeling (fluorescence on membrane, metabolic incorporation of the chemical reporter) (Micrococcus luteus; [11]) | labeling (fluorescence on membrane, metabolic incorporation of the chemical reporter) (Staphylococcus aureus; [11])
